Assay results from patent publication US11976072B2, “Diacylglycerol kinase modulating compounds” (priority 2021, dated 2024).
pEC50, pIC50: −log10 of the molar value. Where two headings read alike, the source gives them in different places.

Assays:
human DGKα = human DGKα (Homo sapiens, UniProt P23743); experiment: DGKα Biochemical Activity Assay (ADP-Glo); conditions: recombinant DGKα 1 nM, 100 μM ATP, 18:1 DAG/POPS/octylglucoside micelles, 1 hour at 25° C.; geometric mean; read-out: HTBS DGKa 1X ATP KM IC50;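 further: luminescent detection of ADP produced as DGKα phosphorylates DAG to phosphatidic acid, IC50 from four-parameter nonlinear curve fit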
Chain of human DGKα (P23743 whole entry): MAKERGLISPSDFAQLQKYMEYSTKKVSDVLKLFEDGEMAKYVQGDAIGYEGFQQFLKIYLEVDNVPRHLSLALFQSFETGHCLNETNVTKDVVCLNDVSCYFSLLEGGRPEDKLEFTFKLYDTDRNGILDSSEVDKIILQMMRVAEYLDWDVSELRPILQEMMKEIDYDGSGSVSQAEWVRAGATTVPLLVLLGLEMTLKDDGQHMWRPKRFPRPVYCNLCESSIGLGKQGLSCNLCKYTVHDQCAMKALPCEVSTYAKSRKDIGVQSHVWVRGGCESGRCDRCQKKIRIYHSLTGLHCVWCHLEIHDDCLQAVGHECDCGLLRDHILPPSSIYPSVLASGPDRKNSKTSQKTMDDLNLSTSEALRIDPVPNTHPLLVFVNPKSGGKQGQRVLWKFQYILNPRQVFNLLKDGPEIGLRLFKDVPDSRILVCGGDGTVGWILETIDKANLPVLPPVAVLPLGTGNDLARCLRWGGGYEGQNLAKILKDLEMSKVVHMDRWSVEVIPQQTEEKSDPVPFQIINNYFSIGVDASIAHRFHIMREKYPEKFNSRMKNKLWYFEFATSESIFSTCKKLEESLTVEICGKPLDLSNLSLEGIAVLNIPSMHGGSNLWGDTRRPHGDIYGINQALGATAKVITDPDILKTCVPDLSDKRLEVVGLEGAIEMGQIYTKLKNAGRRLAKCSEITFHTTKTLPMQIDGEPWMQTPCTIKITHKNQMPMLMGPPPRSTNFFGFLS

[1] = test system: Jurkat NFκB-luciferase cells; experiment: Jurkat NFκB-Luciferase Assay; type: cell-based; conditions: Homo sapiens; for pEC50: Jurkat NFκB-luciferase cells activated with anti-CD3 antibody (OKT3), 2.5 hrs at 37° C., geometric mean, read-out: DGK NFKb Luciferase EC50; for EC50: Jurkat, read-out: DGK NFKb Luciferase EC50 (nM)
Experimental: The day after, the excess antibody was washed out five times with 100 ul/well of assay medium (RPMI supplemented with 10% fetal bovine serum) using a Biotek EL406 instrument and leaving 20 ul of residual volume in each well. Jurkat NFκB-luciferase cells (Promega #) were harvested and diluted to 1 million cells/ml in assay medium. […] Thirty microliters of medium containing the Jurkat NFκB-luciferase cells were then dispensed using a Biotek MicroFlo instrument in each well of the compound-containing plate. […] Forty microliters of One-Glo Ex (Promega) was then added to the assay mixture and luciferase activity was read on a Envision plate reader 7 minutes later.

Compound | pIC50 (human DGKα) | pEC50 [1] | EC50 [1] [nM]
Fc1ccc(Cl)c2c1c(N1CCOCc3c(C#CC4(C(F)F)CC4)cccc31)nc1nncn12 [Example 39, 1-(9-chloro-6-fluoro-[1,2,4]triazolo[4,3-a]quinazolin-5-yl)-6-[2-[1-(difluoromethyl)cyclopropyl]ethynyl]-3,5-dihydro-2H-4,1-benzoxazepine] | 8.08 | 8.66 | –
CC(C)(O)C#Cc1cccc2c1COCCN2c1nc2nncn2c2c(Cl)ccc(F)c12 [Example 40, 4-[1-(9-chloro-6-fluoro-[1,2,4]triazolo[4,3-a]quinazolin-5-yl)-3,5-dihydro-2H-4,1-benzoxazepin-6-yl]-2-methyl-but-3-yn-2-ol] | 7.90 | – | 17.1
CC(C)(C#Cc1cccc2c1COCCN2c1nc2nncn2c2c(Cl)ccc(F)c12)C(F)F [Example 41, 1-(9-chloro-6-fluoro-[1,2,4]triazolo[4,3-a]quinazolin-5-yl)-6-(4,4-difluoro-3,3-dimethyl-but-1-ynyl)-3,5-dihydro-2H-4,1-benzoxazepine] | 7.96 | 8.86 | –
Cc1nnc2nc(N(CC(F)F)c3ccnc(C#CC(C)(C)C(F)F)c3F)c3c(F)cccc3n12 [Example 42, N-[2-(4,4-difluoro-3,3-dimethyl-but-1-ynyl)-3-fluoro-4-pyridyl]-N-(2,2-difluoroethyl)-6-fluoro-1-methyl-[1,2,4]triazolo[4,3-a]quinazolin-5-amine] | 8.16 | 8.63 | –
Cc1nnc2nc(N(CC(F)F)c3ccnc(C#CC(C)(C)C(F)(F)F)c3F)c3c(F)cccc3n12 [Example 43, N-(2,2-difluoroethyl)-6-fluoro-N-[3-fluoro-2-(4,4,4-trifluoro-3,3-dimethyl-but-1-ynyl)-4-pyridyl]-1-methyl-[1,2,4]triazolo[4,3-a]quinazolin-5-amine] | 8.00 | 8.91 | –
Cc1nnc2nc(N(CC(F)F)c3ccnc(C#CC4(C(F)F)CC4)c3F)c3c(F)cccc3n12 [Example 44, N-(2,2-difluoroethyl)-N-[2-[2-[1-(difluoromethyl)cyclopropyl]ethynyl]-3-fluoro-4-pyridyl]-6-fluoro-1-methyl-[1,2,4]triazolo[4,3-a]quinazolin-5-amine] | 8.42 | 8.15 | –
Cc1nnc2nc(N(CC(F)F)c3ccnc(C#CC(C)(C)O)c3F)c3c(F)cccc3n12 [Example 45, 4-[4-[2,2-difluoroethyl-(6-fluoro-1-methyl-[1,2,4]triazolo[4,3-a]quinazolin-5-yl)amino]-3-fluoro-2-pyridyl]-2-methyl-but-3-yn-2-ol] | 8.08 | – | 329
CC(C)(C#Cc1cc(F)cc(N(CC(F)F)c2nc3nncn3c3c(Cl)cc(F)cc23)c1)C(F)F [Example 46, 9-chloro-N-[3-(4,4-difluoro-3,3-dimethyl-but-1-ynyl)-5-fluoro-phenyl]-N-(2,2-difluoroethyl)-7-fluoro-[1,2,4]triazolo[4,3-a]quinazolin-5-amine] | 7.81 | 8.76 | –
Fc1cc(C#CC2(C(F)F)CC2)cc(N(CC(F)F)c2nc3nncn3c3c(Cl)cc(F)cc23)c1 [Example 47, 9-chloro-N-(2,2-difluoroethyl)-N-[3-[2-[1-(difluoromethyl)cyclopropyl]ethynyl]-5-fluoro-phenyl]-7-fluoro-[1,2,4]triazolo[4,3-a]quinazolin-5-amine] | 7.72 | 8.41 | –
Fc1cc(C#CC2(C(F)(F)F)CC2)cc(N(CC(F)F)c2nc3nncn3c3c(Cl)cc(F)cc23)c1 [Example 48, 9-chloro-N-(2,2-difluoroethyl)-7-fluoro-N-[3-fluoro-5-[2-[1-(trifluoromethyl)cyclopropyl]ethynyl]phenyl]-[1,2,4]triazolo[4,3-a]quinazolin-5-amine] | 8.24 | 8.52 | –
CC1(C#Cc2cc(F)cc(N(CC(F)F)c3nc4nncn4c4c(Cl)cc(F)cc34)c2)CC1 [Example 49, 9-chloro-N-(2,2-difluoroethyl)-7-fluoro-N-[3-fluoro-5-[2-(1-methylcyclopropyl)ethynyl]phenyl]-[1,2,4]triazolo[4,3-a]quinazolin-5-amine] | 7.91 | 8.87 | –
CC(C)(O)C#Cc1cc(F)cc(N(CC(F)F)c2nc3nncn3c3c(Cl)cc(F)cc23)c1 [Example 50, 4-[3-[(9-chloro-7-fluoro-[1,2,4]triazolo[4,3-a]quinazolin-5-yl)-(2,2-difluoroethyl)amino]-5-fluoro-phenyl]-2-methyl-but-3-yn-2-ol] | 7.93 | – | 16.8
Cc1nnc2nc(N(CC(F)F)c3cccc(C#CC4(C(F)F)CC4)c3F)c3c(F)cccc3n12 [Example 51, N-(2,2-difluoroethyl)-N-[3-[2-[1-(difluoromethyl)cyclopropyl]ethynyl]-2-fluoro-phenyl]-6-fluoro-1-methyl-[1,2,4]triazolo[4,3-a]quinazolin-5-amine] | 8.30 | 8.72 | –
Cc1nnc2nc(N(CC(F)F)c3cccc(C#CC4(C)CC4)c3F)c3c(F)cccc3n12 [Example 52, N-(2,2-difluoroethyl)-6-fluoro-N-[2-fluoro-3-[2-(1-methylcyclopropyl)ethynyl]phenyl]-1-methyl-[1,2,4]triazolo[4,3-a]quinazolin-5-amine] | 8.10 | 9.23 | –
Cc1nnc2nc(N(CC(F)F)c3cccc(C#CC(C)(C)C(F)F)c3F)c3c(F)cccc3n12 [Example 53, N-[3-(4,4-difluoro-3,3-dimethyl-but-1-ynyl)-2-fluoro-phenyl]-N-(2,2-difluoroethyl)-6-fluoro-1-methyl-[1,2,4]triazolo[4,3-a]quinazolin-5-amine] | 7.73 | 9.10 | –
Cc1nnc2nc(N(CC(F)F)c3cccc(C#CC4(C(F)(F)F)CC4)c3F)c3c(F)cccc3n12 [Example 54, N-(2,2-difluoroethyl)-6-fluoro-N-[2-fluoro-3-[2-[1-(trifluoromethyl)cyclopropyl]ethynyl]phenyl]-1-methyl-[1,2,4]triazolo[4,3-a]quinazolin-5-amine] | 7.48 | 8.79 | –
Cc1nnc2nc(N(CC(F)F)c3cccc(C#CC(C)(C)C(F)F)c3F)c3cc(F)ccc3n12 [Example 55, N-[3-(4,4-difluoro-3,3-dimethyl-but-1-ynyl)-2-fluoro-phenyl]-N-(2,2-difluoroethyl)-7-fluoro-1-methyl-[1,2,4]triazolo[4,3-a]quinazolin-5-amine] | 7.67 | 8.47 | –
Cc1nnc2nc(N(CC(F)F)c3cccc(C#CC4(C)CC4)c3F)c3cc(F)ccc3n12 [Example 56, N-(2,2-difluoroethyl)-7-fluoro-N-[2-fluoro-3-[2-(1-methylcyclopropyl)ethynyl]phenyl]-1-methyl-[1,2,4]triazolo[4,3-a]quinazolin-5-amine] | 7.87 | 9.09 | –
CC(C)(C#Cc1cccc(N(CC(F)F)c2nc3nncn3c3ccc(F)cc23)c1F)C(F)F [Example 57, N-[3-(4,4-difluoro-3,3-dimethyl-but-1-ynyl)-2-fluoro-phenyl]-N-(2,2-difluoroethyl)-7-fluoro-[1,2,4]triazolo[4,3-a]quinazolin-5-amine] | 7.33 | 9.17 | –
Cc1nnc2nc(N3c4cccc(C#CC5(C(F)(F)F)CC5)c4CCC3C)c3c(F)cccc3n12 (centres unmarked) [Example 58, 6-fluoro-1-methyl-5-(2-methyl-5-((1-(trifluoromethyl)cyclopropyl)ethynyl)-3,4-dihydroquinolin-1(2H)-yl)-[1,2,4]triazolo[4,3-a]quinazoline] | 7.11 | 8.43 | –
Cc1nnc2nc(N3c4cccc(C#CC(C)(C)O)c4CCC3C)c3c(F)cccc3n12 (centres unmarked) [Example 59, 4-(1-(6-fluoro-1-methyl-[1,2,4]triazolo[4,3-a]quinazolin-5-yl)-2-methyl-1,2,3,4-tetrahydroquinolin-5-yl)-2-methylbut-3-yn-2-ol] | 7.95 | 7.93 | –
CC(C)(O)C#Cc1cc(N(CC(F)F)c2nc3nncn3c3c(Cl)cc(F)cc23)ccn1 [Example 60, 4-(4-((9-chloro-7-fluoro-[1,2,4]triazolo[4,3-a]quinazolin-5-yl)(2,2-difluoroethyl)amino)pyridin-2-yl)-2-methylbut-3-yn-2-ol] | 7.16 | 6.27 | –
CC1(C#Cc2cc(N(CC(F)F)c3nc4nncn4c4c(Cl)cc(F)cc34)ccn2)CC1 [Example 61, 9-chloro-N-(2,2-difluoroethyl)-7-fluoro-N-(2-((1-methylcyclopropyl)ethynyl)pyridin-4-yl)-[1,2,4]triazolo[4,3-a]quinazolin-5-amine] | 8.07 | 8.47 | –
Cc1nnc2nc(N(CC(F)F)c3cc(F)cc(C#CC(C)(C)c4ccncc4)c3)c3c(F)c(F)ccc3n12 [Example 62, N-(2,2-difluoroethyl)-6,7-difluoro-N-(3-fluoro-5-(3-methyl-3-(pyridin-4-yl)but-1-yn-1-yl)phenyl)-1-methyl-[1,2,4]triazolo[4,3-a]quinazolin-5-amine] | 7.10 | 8.49 | –
Cc1nnc2nc(N3CCOCc4c(C#CC(C)(C)C(=O)NC(C)(C)C(F)(F)F)cccc43)c3c(F)c(F)ccc3n12 [Example 63, 4-(1-(6,7-difluoro-1-methyl-[1,2,4]triazolo[4,3-a]quinazolin-5-yl)-1,2,3,5-tetrahydrobenzo[e][1,4]oxazepin-6-yl)-2,2-dimethyl-N-(1,1,1-trifluoro-2-methylpropan-2-yl)but-3-ynamide] | 7.71 | 8.38 | –
